The subject of one test is large intestine loop. The experiment in a line: Water absorption action using rat colon loop technique. Format: in vivo. The following applies: male SD (IGS) rat colon loop, PGE2 4 μg/ml/kg i.p., compound in Tyrode's solution injected into loop, 1 hour; FIGS. 5-8. As for the experimental part: (Method) Appendix and large intestine were isolated from a male SD (IGS) rat under pentobarbital anesthesia, which were ligated 5 cm below the appendix to prepare a large intestine loop. Immediately after loop preparation, PGE2 (4 μg/ml/kg, SIGMA) was intraperitoneally administered. Thirty minutes later, 2 ml of Tyrode's solution (NaCl 136.9 mM, KCl 2.7 mM, CaCl2.2H2O 1.8 mM, MgCl2.6H2O 1.04 mM, NaH2PO4.2H2O 0.04 mM, NaH2PO4.2H2O 0.04 mM, Glucose 5.55 mM, NaHCO3 11.9 mM) was injected into the prepared loop. An hour later, weight of the loop, weight of the loop after removing the fluid therefrom and the loop area were measured to calculate the weight of liquid remaining in the loop per unit area.
The above-described Compounds Nos. 1-3 and Compound No. 4 (the compound described in Example 47) were used as the test compounds while the agents were dissolved in Tyrode's solution. Remaining liquid measure per unit area (g/cm^2)=(weight of loop−weight of loop after removing fluid therefrom)/loop area.
Water absorption was assessed by calculating water regulating effect (%) according to the following formula. Water regulating effect (%)=100−(remaining liquid measure per unit area obtained with agent−average remaining liquid measure per base unit area)/(remaining liquid measure per unit area obtained with vehicle−average remaining liquid measure per base unit area)×100.

In a further test the test system is serum iPTH. The experiment in a line: Effect of decreasing iPTH in rat by single dose of intravenous administration. Format: in vivo. To be noted: male SD (IGS) rat, 0.1 mg/kg, compared with cinacalcet. The procedure:
(Method) A single dose was given to male SD (IGS) rat under pentobarbital anesthesia from a tail vein to examine the transition of serum iPTH and serum Ca concentration. Blood was taken before the administration and 5, 15, 30 and 60 minutes after the administration.
Compound No. 1 (the compound described in Example 6) was dissolved in physiological saline. Meanwhile, cinacalcet as a control substance was dissolved in PEG400: Saline=1:1 solution.

The test system of test [1] is NSAID-induced small intestine inflammation. The experiment in a line: Effect against NSAID-induced small intestine inflammation. Format: in vivo, rat. The following applies: 30 minutes before loxoprofen 60 mg/kg oral, 24 hours. The procedure:
(Method) To a non-fasting rat, Compound No. 1 or 2 (the compound described in Example 14) (10 mg/kg) or Compound No. 3 (the compound described in Example 48) (3, 10 or 30 mg/kg) was orally administered. After 30 minutes, loxoprofen (60 mg/kg) was orally administered and the rat was left for 24 hours. Thirty minutes before the autopsy, 1 ml of 1% (w/w) Evansblue dye was intravenously administered to the rat. The small intestine (from duodenum to ileum) of the animal euthanized under deep ether anesthesia was isolated and immersed in 2% formalin for 10 minutes to fix the small intestine from the serosa side. The small intestine was dissected from the opposite side of the mesentery to measure the injury area (mm^2) thereof under a 10× dissecting microscope. T-test or Dunnett's test was employed as the statistical test where p<0.05 was considered to indicate significant difference.

In a further test the target is human CaSR (Homo sapiens (Human), UniProt P41180). The experiment in a line: Assessment of CaSR agonistic activity (FLIPR Ca2+ fluorescence). It counts as cell-based. To be noted: 293E cells transfected with hCaSR/pcDNA3.1, Calcium 4 Assay Kit, 1.5 mM CaCl2 assay buffer. The procedure:
CaSR gene was prepared according to the method described in Example 1 of WO07/55393. The resulting recombinant plasmid was used to generate human CaSR-expressing plasmid hCaSR/pcDNA3.1.
293E cells (EBNA1-expressing IIEK293 cells, ATCC No. CRL-10852) were cultured in DMEM ([…] Glucose-containing Dulbecco's modified Eagle medium, Nacalai Tesque) containing 10% bovine fetal serum in the presence of 250 μg/ml of G418. The cells were seeded on a 10 cm-diameter petri dish at 1.8×10^6 cells/15 ml, and left to stand in a CO2 incubator (5% CO2, 37° C.) for 24 hours. Thereafter, human CaSR expression plasmid hCaSR/pcDNA3.1 was transfected with transfection reagent Mirus Trans IT 293 (Takara Bio). Following static culture in a CO2 incubator for 24 hours, the cells were harvested with 10% bovine fetal serum-containing DMEM and seeded on a poly-D-lysine coat 384 well plate (Falcon) at 15,000 cells/well. Following static culture in a CO2 incubator for 24 hours, the medium was removed and the resultant was added with 50 μl/well of Ca^2+ fluorescent indicator Calcium 4 Assay Kit (Molecular Devices) dissolved in an assay buffer (146 mM NaCl, 5 mM KCl, 1 mM MgSO4, 1 mg/ml Glucose, 20 mM HEPES (PH 7.2), 1.5 mM CaCl2), and left to stand at 37° C. for an hour and then at room temperature for 30 minutes to allow intake of the indicator. The above-mentioned 384-well plate was transferred to FLIPR (Molecular Devices) and added with 12.5 μl/well of a compound dissolved in a 0.1% BSA-containing assay buffer to measure 3-minute change in the fluorescence intensity.
The difference between maximum and minimum fluorescence intensities before and after compound addition (RFU (Max-Min)) was determined by FLIPR automatic calculation. An activity rate was calculated where RFU (Max-Min) upon addition of a compound at a maximum concentration was defined 100% and RFU (Max-Min) upon addition of DMSO as a substitute for the compound at the same concentration was defined 0%. […]

Setting [2] is: non-fasting rat, 10 mg/kg oral, FIG. 3.

Structures are written as SMILES.

Sequence of human CaSR (P41180 20-1078): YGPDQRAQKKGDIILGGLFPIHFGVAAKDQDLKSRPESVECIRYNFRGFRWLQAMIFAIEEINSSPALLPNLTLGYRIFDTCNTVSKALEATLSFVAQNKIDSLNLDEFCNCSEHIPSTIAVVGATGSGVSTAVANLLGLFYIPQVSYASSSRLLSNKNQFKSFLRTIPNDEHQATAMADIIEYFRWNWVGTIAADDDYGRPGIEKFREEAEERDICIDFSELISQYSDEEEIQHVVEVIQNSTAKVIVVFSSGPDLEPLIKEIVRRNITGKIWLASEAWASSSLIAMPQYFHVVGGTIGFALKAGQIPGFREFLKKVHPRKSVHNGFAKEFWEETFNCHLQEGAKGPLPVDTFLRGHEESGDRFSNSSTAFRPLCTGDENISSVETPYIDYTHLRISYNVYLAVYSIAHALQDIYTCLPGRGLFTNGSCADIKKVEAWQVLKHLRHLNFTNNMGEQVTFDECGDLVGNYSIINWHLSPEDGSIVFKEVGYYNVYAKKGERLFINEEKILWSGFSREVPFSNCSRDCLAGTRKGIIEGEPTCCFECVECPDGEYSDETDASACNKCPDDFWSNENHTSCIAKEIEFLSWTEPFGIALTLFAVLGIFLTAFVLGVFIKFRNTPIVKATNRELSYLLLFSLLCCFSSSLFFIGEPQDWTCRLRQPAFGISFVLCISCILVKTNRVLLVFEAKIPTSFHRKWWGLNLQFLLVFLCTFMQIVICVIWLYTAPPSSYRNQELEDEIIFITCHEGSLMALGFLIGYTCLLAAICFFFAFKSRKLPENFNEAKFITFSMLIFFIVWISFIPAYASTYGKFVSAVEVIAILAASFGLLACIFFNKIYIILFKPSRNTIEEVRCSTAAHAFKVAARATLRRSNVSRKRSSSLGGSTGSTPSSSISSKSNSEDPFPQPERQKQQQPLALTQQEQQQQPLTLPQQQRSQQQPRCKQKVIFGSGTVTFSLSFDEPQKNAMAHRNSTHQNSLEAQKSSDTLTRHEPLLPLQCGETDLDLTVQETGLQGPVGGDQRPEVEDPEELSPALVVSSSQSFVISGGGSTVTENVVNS

Regarding `N[C@@H](CNC(=O)Nc1cc(Cl)cc(S(=O)(=O)O)c1O)C(=O)O` [Example 6, (2S)-2-amino-3-{[(5-chloro-2-hydroxy-3-sulfophenyl)carbamoyl]amino}propanoic acid], the “water absorption (water regulating effect)” value (shortened to “water absorption”) in the test on large intestine loop was “promoted water absorption in a dose-depending manner”. Moreover, the “decreasing serum iPTH” value in the test on serum iPTH (FIG. 1) is “almost the same effect as cinacalcet”. For the same compound, the “decreasing serum Ca” value in the test with serum iPTH (FIG. 2) is “almost the same effect as cinacalcet”. For the same compound, in test [1] (setting [2]), the “injury area of small intestine” value is recorded as “significantly improved the injury area”.
As for `Cc1c(Cl)cc(S(=O)(=O)O)cc1NC(=O)NC[C@H](N)C(=O)O` [Example 14, (2S)-2-amino-3-{[(3-chloro-2-methyl-5-sulfophenyl)carbamoyl]amino}propanoic acid], the “water absorption” value in the test on large intestine loop is given as “promoted water absorption in a dose-depending manner”. Also, the “injury area of small intestine” value in test [1] (setting [2]) is “showed a tendency to improve the injury area”. Moreover, the EC50 at human CaSR was 0.003 µM.
As for `Cc1c(Cl)cc(S(=O)(=O)O)cc1NC(=S)NC[C@H](N)C(=O)O` [Example 47, (2S)-2-amino-3-{[(3-chloro-2-methyl-5-sulfophenyl)carbamothioyl]amino}propanoic acid], the “water absorption” value in the test with large intestine loop was “promoted water absorption in a dose-depending manner”.
With `Cc1c(Cl)cc(NC(=S)NC[C@H](N)C(=O)O)cc1S(=O)(=O)O` [Example 48, (2S)-2-amino-3-{[(3-chloro-4-methyl-5-sulfophenyl)carbamothioyl]amino}propanoic acid], the “water absorption” value in the test with large intestine loop is on record as “promoted water absorption in a dose-depending manner”. Moreover, in test [1] (non-fasting rat, 3, 10 or 30 mg/kg oral, FIG. 4), the “injury area of small intestine” value was “showed a tendency to improve the injury area”.
As to `N[C@@H](CCC(=O)Nc1cc(Cl)cc(S(=O)(=O)O)c1O)C(=O)N1CCOCC1` [Example 58, 3-[(4S)-4-amino-5-(morpholine-4-yl)-5-oxopentanamide]-5-chloro-2-hydroxybenzene-1-sulfonic acid], the EC50 at human CaSR was 3.1 µM.
With `N[C@@H](CCC(=O)Nc1cc(Cl)cc(S(=O)(=O)O)c1O)C(=O)NC1CCCCCC1` [Example 60, 3-[(4S)4-amino-4-(cycloheptylcarbamoyl)butanamide]-5-chloro-2-hydroxybenzene-1-sulfonic acid], at human CaSR, the EC50 was determined as 3.4 µM.

These data come from US9253997B2, “Alkylamine derivative” (AJINOMOTO CO., INC., priority 2010, dated 2016).
